In the oligonucleotide strings, read from the 5' end, every base follows the letter of its sugar. An asterisk marks phosphorothioate; unmarked linkages are phosphodiester. Other units and linkages are bracketed, terminal groups are in braces. A string of capitals states the bases alone. e = 2'-O-(2-methoxyethyl) (MOE); [5mC] = 5-methylcytosine; d = 2'-deoxy (DNA)
System: human Factor 7 mRNA
Experiment: Inhibition of human Factor 7 mRNA by 2-10-2 MOE shortmers in HepB3 cells, electroporation, 1,000 nM
Assay type: cell-based
Settings: electroporation, 1,000 nM oligonucleotide, approximately 24 hours, relative to untreated control cells
From the text: Short antisense oligonucleotides (shortmers) were designed to target a Factor 7 nucleic acid. The shortmers in Table 17 were designed as 2-10-2 MOE gapmers. The gapmers are 14 nucleotides in length, wherein the central gap segment is comprised of 10 2′-deoxynucleotides and is flanked on both sides (in the 5′ and 3′ directions) by wings comprising 2 nucleotides each. Each nucleotide in the 5′ wing segment and each nucleotide in the 3′ wing segment has a 2′-MOE modification. The internucleoside linkages throughout each gapmer are phosphorothioate (P═S) linkages. All cytidine residues throughout each gapmer are 5-methylcytidines.
Shortmers were evaluated for their ability to reduce human Factor 7 mRNA in HepB3 cells and compared with one 5-10-5 chimeric oligonucleotide from Table 16, ISIS 407939. HepB3 cells at a density of 20,000 cells per well in a 96-well plate were transfected using electroporation with 1,000 nM of antisense oligonucleotide. After a treatment period of approximately 24 hours, RNA was isolated from the cells and Factor 7 mRNA levels were measured by real-time RT-PCR, as described herein. Factor 7 mRNA levels were adjusted according to total RNA content as measured by RIBOGREEN®. Results are presented in Table 17 as percent inhibition of Factor 7 mRNA, relative to untreated control cells. ISIS 407939 is the first oligonucleotide in […] to which the shortmers were compared, and is marked by an asterisk (*).

## 435668 (antisense eT*eG*d[5mC]*d[5mC]*dA*dT*dG*dG*dA*d[5mC]*dA*d[5mC]*eT*e[5mC]) [compound 435668]
  % inhibition of human Factor 7 mRNA: 75%

## 435669 (antisense eG*eG*dA*d[5mC]*d[5mC]*dT*dG*d[5mC]*d[5mC]*dA*dT*dG*eG*eA) [compound 435669]
  % inhibition of human Factor 7 mRNA: 36%

## 435670 (antisense e[5mC]*eA*dA*d[5mC]*dA*dG*dG*dA*d[5mC]*d[5mC]*dT*dG*e[5mC]*e[5mC]) [compound 435670]
  % inhibition of human Factor 7 mRNA: 47%

## 435671 (antisense eT*e[5mC]*dA*d[5mC]*d[5mC]*dA*dA*d[5mC]*dA*dA*d[5mC]*dA*eG*eG) [compound 435671]
  % inhibition of human Factor 7 mRNA: 28%

## 435672 (antisense eA*e[5mC]*d[5mC]*d[5mC]*dA*dG*dA*dT*dG*dG*dT*dG*eT*eT) [compound 435672]
  % inhibition of human Factor 7 mRNA: 12%

## 435673 (antisense eA*eG*dA*d[5mC]*d[5mC]*dA*d[5mC]*d[5mC]*d[5mC]*dA*dG*dA*eT*eG) [compound 435673]
  % inhibition of human Factor 7 mRNA: 34%

## 435674 (antisense eA*eA*dA*d[5mC]*dA*dG*dT*dG*dG*dG*d[5mC]*d[5mC]*eG*e[5mC]) [compound 435674]
  % inhibition of human Factor 7 mRNA: 34%

## 435675 (antisense eT*eG*dT*d[5mC]*dG*dA*dA*dA*d[5mC]*dA*dG*dT*eG*eG) [compound 435675]
  % inhibition of human Factor 7 mRNA: 24%

## 435676 (antisense eG*eA*dT*dT*dT*dT*dG*dT*d[5mC]*dG*dA*dA*eA*e[5mC]) [compound 435676]
  % inhibition of human Factor 7 mRNA: 11%

## 435677 (antisense eG*eT*dG*d[5mC]*dT*d[5mC]*dG*d[5mC]*d[5mC]*d[5mC]*dA*dG*e[5mC]*eA) [compound 435677]
  % inhibition of human Factor 7 mRNA: 60%

## 435678 (antisense eA*eG*dG*dT*d[5mC]*dG*dT*dG*d[5mC]*dT*d[5mC]*dG*e[5mC]*e[5mC]) [compound 435678]
  % inhibition of human Factor 7 mRNA: 67%

## 435679 (antisense e[5mC]*eG*d[5mC]*dT*dG*dA*dG*dG*dT*d[5mC]*dG*dT*eG*e[5mC]) [compound 435679]
  % inhibition of human Factor 7 mRNA: 62%

## 435680 (antisense eG*eT*dG*d[5mC]*dT*d[5mC]*dG*d[5mC]*dT*dG*dA*dG*eG*eT) [compound 435680]
  % inhibition of human Factor 7 mRNA: 52%

## 435681 (antisense eA*eT*dG*dA*d[5mC]*d[5mC]*dT*dG*d[5mC]*dG*d[5mC]*d[5mC]*eA*e[5mC]) [compound 435681]
  % inhibition of human Factor 7 mRNA: 40%

## 435682 (antisense eG*eG*dA*dT*dG*dA*dT*dG*dA*d[5mC]*d[5mC]*dT*eG*e[5mC]) [compound 435682]
  % inhibition of human Factor 7 mRNA: 36%

## 435683 (antisense eA*eT*dG*dT*d[5mC]*dG*dT*dG*dG*dT*dT*dG*eG*eT) [compound 435683]
  % inhibition of human Factor 7 mRNA: 3%

## 435684 (antisense eA*eG*d[5mC]*dA*dG*d[5mC]*dG*d[5mC]*dG*dA*dT*dG*eT*e[5mC]) [compound 435684]
  % inhibition of human Factor 7 mRNA: 56%

## 435685 (antisense eA*eG*dG*dA*d[5mC]*d[5mC]*dA*d[5mC]*dG*dG*dG*d[5mC]*eT*eG) [compound 435685]
  % inhibition of human Factor 7 mRNA: 40%

## 435686 (antisense e[5mC]*eA*dG*dT*dG*dA*dG*dG*dA*d[5mC]*d[5mC]*dA*e[5mC]*eG) [compound 435686]
  % inhibition of human Factor 7 mRNA: 31%

## 435687 (antisense eA*eT*dG*dG*dT*d[5mC]*dA*dG*dT*dG*dA*dG*eG*eA) [compound 435687]
  % inhibition of human Factor 7 mRNA: 7%

## 435688 (antisense eA*e[5mC]*d[5mC]*dA*d[5mC]*dA*dT*dG*dG*dT*d[5mC]*dA*eG*eT) [compound 435688]
  % inhibition of human Factor 7 mRNA: 0%

## 435689 (antisense eT*eT*d[5mC]*dG*dG*dG*d[5mC]*dA*dG*dG*d[5mC]*dA*eG*eA) [compound 435689]
  % inhibition of human Factor 7 mRNA: 23%

## 435690 (antisense eG*eT*d[5mC]*d[5mC]*dG*dT*dT*d[5mC]*dG*dG*dG*d[5mC]*eA*eG) [compound 435690]
  % inhibition of human Factor 7 mRNA: 55%

## 435691 (antisense e[5mC]*eA*dG*d[5mC]*d[5mC]*dG*d[5mC]*dT*dG*dA*d[5mC]*d[5mC]*eA*eA) [compound 435691]
  % inhibition of human Factor 7 mRNA: 25%

## 435692 (antisense e[5mC]*eG*dG*dT*d[5mC]*d[5mC]*dA*dG*d[5mC]*dA*dG*d[5mC]*eT*eG) [compound 435692]
  % inhibition of human Factor 7 mRNA: 32%

## 435693 (antisense eG*eG*d[5mC]*dA*dG*dT*d[5mC]*d[5mC]*dT*dG*dG*dG*eT*e[5mC]) [compound 435693]
  % inhibition of human Factor 7 mRNA: 43%

## 435694 (antisense e[5mC]*eT*dG*d[5mC]*dA*dG*dG*d[5mC]*dA*dG*dT*d[5mC]*e[5mC]*eT) [compound 435694]
  % inhibition of human Factor 7 mRNA: 39%

## 435695 (antisense eG*eA*d[5mC]*dT*dG*d[5mC]*dT*dG*d[5mC]*dA*dG*dG*e[5mC]*eA) [compound 435695]
  % inhibition of human Factor 7 mRNA: 48%

## 435696 (antisense e[5mC]*eA*dG*dA*dA*d[5mC]*dA*dT*dG*dT*dA*d[5mC]*eT*e[5mC]) [compound 435696]
  % inhibition of human Factor 7 mRNA: 10%

## 435697 (antisense eA*eG*dT*dA*dG*d[5mC]*d[5mC]*dG*dG*d[5mC]*dA*d[5mC]*eA*eG) [compound 435697]
  % inhibition of human Factor 7 mRNA: 53%

## 435698 (antisense e[5mC]*e[5mC]*dT*dT*dG*d[5mC]*dA*dG*dG*dA*dG*dT*e[5mC]*e[5mC]) [compound 435698]
  % inhibition of human Factor 7 mRNA: 61%

## 435699 (antisense eG*e[5mC]*d[5mC]*d[5mC]*d[5mC]*dA*dG*d[5mC]*dT*dG*dA*d[5mC]*eG*eA) [compound 435699]
  % inhibition of human Factor 7 mRNA: 48%

## 435714 (antisense eA*e[5mC]*dT*d[5mC]*dG*dA*dT*dG*dT*dA*d[5mC]*dT*eG*eG) [compound 435714]
  % inhibition of human Factor 7 mRNA: 3%

## 435715 (antisense e[5mC]*eA*dG*d[5mC]*d[5mC]*dA*d[5mC]*dT*d[5mC]*dG*dA*dT*eG*eT) [compound 435715]
  % inhibition of human Factor 7 mRNA: 35%

## 435716 (antisense eT*eT*dT*dT*dG*d[5mC]*dA*dG*d[5mC]*d[5mC]*dA*d[5mC]*eT*e[5mC]) [compound 435716]
  % inhibition of human Factor 7 mRNA: 22%

## 435717 (antisense eT*eG*dA*dG*d[5mC]*dT*dT*dT*dT*dG*d[5mC]*dA*eG*e[5mC]) [compound 435717]
  % inhibition of human Factor 7 mRNA: 0%

## 435718 (antisense eG*e[5mC]*dT*d[5mC]*dG*d[5mC]*dA*dG*dG*dA*dG*dG*eA*e[5mC]) [compound 435718]
  % inhibition of human Factor 7 mRNA: 26%

## 435719 (antisense e[5mC]*eA*dG*d[5mC]*d[5mC]*dT*dT*dG*dG*d[5mC]*dT*dT*eT*e[5mC]) [compound 435719]
  % inhibition of human Factor 7 mRNA: 50%

## 435720 (antisense eA*eG*dG*d[5mC]*dT*d[5mC]*dA*dG*d[5mC]*dT*dG*dG*eG*e[5mC]) [compound 435720]
  % inhibition of human Factor 7 mRNA: 16%

## 435721 (antisense eT*eA*dA*dG*dG*dA*dG*dG*d[5mC]*dT*d[5mC]*dA*eG*e[5mC]) [compound 435721]
  % inhibition of human Factor 7 mRNA: 12%

## 435722 (antisense eT*eG*dG*dG*d[5mC]*dT*dT*dG*dG*d[5mC]*dT*dG*eA*eA) [compound 435722]
  % inhibition of human Factor 7 mRNA: 50%

## 435723 (antisense eG*e[5mC]*d[5mC]*dA*dG*d[5mC]*dA*dG*dA*dT*d[5mC]*dA*e[5mC]*eG) [compound 435723]
  % inhibition of human Factor 7 mRNA: 68%

## 435724 (antisense e[5mC]*eT*dG*dA*dG*dG*d[5mC]*d[5mC]*dA*dG*d[5mC]*dA*eG*eA) [compound 435724]
  % inhibition of human Factor 7 mRNA: 52%

## 435725 (antisense eG*e[5mC]*dA*dG*d[5mC]*d[5mC]*dT*dG*dA*dG*dG*d[5mC]*e[5mC]*eA) [compound 435725]
  % inhibition of human Factor 7 mRNA: 79%

## 435726 (antisense eG*e[5mC]*dA*dA*dT*dG*dA*dA*dG*dG*d[5mC]*dA*eG*eA) [compound 435726]
  % inhibition of human Factor 7 mRNA: 26%

## 435727 (antisense eT*eG*dG*dA*dG*dT*d[5mC]*dA*dG*d[5mC]*dA*dT*e[5mC]*eG) [compound 435727]
  % inhibition of human Factor 7 mRNA: 73%

## 435728 (antisense eA*e[5mC]*dA*d[5mC]*dA*dT*dG*dG*dA*dG*dT*d[5mC]*eA*eG) [compound 435728]
  % inhibition of human Factor 7 mRNA: 16%

## 435729 (antisense eA*e[5mC]*dA*dG*d[5mC]*dA*d[5mC]*dA*d[5mC]*dA*dT*dG*eG*eA) [compound 435729]
  % inhibition of human Factor 7 mRNA: 30%

## 435730 (antisense eT*eA*dA*dA*d[5mC]*dA*dA*d[5mC]*d[5mC]*dG*d[5mC]*d[5mC]*eT*eT) [compound 435730]
  % inhibition of human Factor 7 mRNA: 49%

## 435731 (antisense eG*eT*dG*dA*dG*dA*dG*d[5mC]*dT*dA*dA*dA*e[5mC]*eA) [compound 435731]
  % inhibition of human Factor 7 mRNA: 11%

## 435732 (antisense eG*eA*dA*dA*dA*dG*dT*dG*dA*dG*dA*dG*e[5mC]*eT) [compound 435732]
  % inhibition of human Factor 7 mRNA: 0%

From patent US20120214862A1, “MODULATION OF FACTOR 7 EXPRESSION” (ISIS Pharmaceuticals, Inc., priority 2009, published 2012)
